In patent US20220323454A1, “PHENOTHIAZINES AND THEIR DERIVATIVES FOR USE AS A MEDICAMENT” (Guangzhou Virotech Pharmaceutical Co., Ltd., priority 2019, published 2022):

Key:
[1] = tested on: EGFR-L858R mutant orthotopic tumors; test: EGFR-L858R transgenic mouse orthotopic lung cancer model (CT); assay type: in vivo; conditions: FIG. 6B
From the text: The advantages of xenograft models are that the antigenic epitopes recognized by T cells are very clear, and the system is pure for elucidation. The disadvantage is that this model cannot simulate the complex carcinogenesis, tumorigenesis, and interactions of tumor and stromal cells of the primary cancer. Therefore, murine xenograft models are less predictive of drug effects in human patients. Therefore, in this example, the effect of the MTC of the present invention in treating tumors was further investigated by using a transgenic lung cancer mouse model. […] One to two months later, lung cancer in mice could be detected and recorded by computed tomography (CT). […]
(2) The size and severity of the tumors was recorded by computed tomography (CT).
(3) The tumor-bearing mice were randomly divided into groups and given placebo (HKI solution) and MTC (40 mg/kg/day in HKI solution). After 2 weeks of treatment, tumor sizes were recorded by CT again.
Mice were intraperitoneally injected with CD8 antibody […] one week in advance to deplete CD8+ cells in the tumor-bearing mice. The mice were then co-treated with MTC and CD8 antibody for 2 weeks, and the tumor size was recorded by CT.

OT-1 CTL cells = test: Secretion of CTL effector molecules on co-culture with EG7-PD-L1 target cells (flow cytometry); assay type: cell-based, mouse; conditions: CTL : EG7-PD-L1 1:1, GolgiPlug 6 hours; FIG. 3
Procedure: (1) Preparation of CTL cells: The spleens of OT1 mice were obtained, ground and added with red blood cell lysate, to prepare single-cell suspension. The culture medium was 1640+10% FBS+50 μM βME+10 nM IL-2. Cell density was adjusted to about 2-4 million/mL. The cells were added with 10 nM OVA257-264, and cultured in a cell incubator at 37° C., 5% CO2. From the day of CTL preparation, cells were stained with FITC-labeled PD-1 antibody every day, and the changes of PD-1 expression on the cell surfaces were detected by flow cytometry.
(3) CTL cells and target cells EG7 (EL4 lymphoma cells expressing chicken ovalbumin) were mixed and cultured at a concentration of 1:1. The cell mixture was treated with 1 μM protein transport inhibitor GolgiPlug™ for 6 hours, and then fixed by 4% paraformaldehyde. The cells were then treated with 0.1% saponin, and stained with antibodies against each effector molecule. The effect of MTC on the secretion of CTL effector molecules was detected by flow cytometry.

PD-1 recruitment of SHP2 = target: T1, PD-1 recruitment of SHP2 (Homo sapiens, UniProt Q06124+Q15116); test: Confocal localization of PD-1-GFP and SHP2-mCherry in 293T cells; assay type: cell-based; conditions: 293T stable cell line, MTC 6 hours, then 1 μM PVD 5 minutes
T1 construct: expressed in transfected cells
Procedure: (2) Fusion genes PD-1-GFP and SHP2-mCherry were transfected into 293T cells with liposomes to construct a stable cell line. The cells were added with MTC at different concentrations, cultured for 6 hours, and then treated with 1 μM PVD (a dephosphorylase inhibitor) for 5 minutes. Cells were fixed with 4% paraformaldehyde and the effect of MTC on the localization of GFP and mCherry, namely PD-1 and SHP2, was observed under Confocal.

B16-OVA cells = test: CTL killing of IFN-γ-treated B16-OVA melanoma cells (microscope); assay type: cell-based, mouse
Procedure: (3) Melanoma cells B16-OVA (B16 cells expressing OVA gene) were treated with 10 μg/mL IFN-γ for 24 hours, and then mixed with CTL cells at a ratio of 1:5 and co-cultured for 4 hours. Cells were treated with 1 μM MTC. B16-OVA cells treated with DMSO or MTC only (without IFN-γ treatment) were used as control. The apoptosis of B16-OVA was observed by microscope, and then the killing ability of CTL cells to target cells was assessed.
(§1) (4) The B16-OVA group received no treatment, and the medium was replaced with water in the Water group. The other groups were treated with 10 μg/mL IFNγ. After 24 hours, except for the B16-OVA group, each group was co-cultured with CTL cells at a ratio of 1:5 for 4 hours, and treated with MTC […], LMT (1 μM) or anti-PD1 (PD-1 antibody, 10 μg/mL, Nivolumab, BMS). The death of B16-OVA in each group was observed by microscope, and then the killing ability of CTL cells to target cells was assessed. […] The IFN-γ+MTC group and the IFN-γ+LMT group were treated with 10 μg/mL IFN-γ for 24 hours. The cells were then mixed with CTL cells at a ratio of 1:5, co-cultured for 4 hours and treated with MTC (1 μM) or LMT (1 μM). The MTC and LMT groups were treated with MTC (10 μM) or LMT (10 μM) only. The killing ability against target cells was observed.

[2] = tested on: Jurkat-PD-1-NFAT-LUC cells; test: IL-2 secretion by Jurkat-PD-1-NFAT-LUC cells co-cultured with Raji-PD-L1 cells (ELISA); assay type: cell-based, human; conditions: 6 hours, FIG. 1D
Procedure: (1) Jurkat cells were used to construct a stable cell line expressing PD-1. The pCAGin-PD-1 plasmid was electroporated into Jurkat cells, which were then screened with 900 μg/mL G418 antibiotic and flow-sorted for single clones. Jurkat-PD-1 cells were then electroporated into a DNA fragment that controls the luciferase gene through the NFAT-binding site (referred to as NFAT-LUC). A single clone was then flow-sorted and named clone 5. Using this cell, the expression level of IL-2 can be measured by the activity of luciferase. Raji cells stably expressing PD-L1 were constructed, and the pCDNA-PD-L1 plasmid was electroporated into the Raji cells, followed by screening with 2 μg/mL puromycin, and then flow-sorted single clones and named clone 1.
(3) A 96-well plate was coated with 10 μg/mL CD3 antibody/10 μg/mL CD28 antibody overnight at 4° C. and excess antibody was washed off with PBS. Raji cells or Raji-PD-L1 cells were co-cultured with Jurkat-PD-1-NFAT-LUC cells at a ratio of 1:1, or to a mixture of Raji-PD-L1 cells and Jurkat-PD-1-NFAT-LUC cells at a ratio of 1:1 was added 1 μM MTC or 10 μg/mL PD1 antibody for co-culture; after 6 hours of co-culture, the secretion of IL-2 in the supernatant was measured by ELISA.

B16-WT cells = test: Killing of B16-WT melanoma cells, with or without CTL cells; assay type: cell-based, mouse; conditions: FIG. 4E
Procedure: as §1

T1 sequence (Q15116 25-288): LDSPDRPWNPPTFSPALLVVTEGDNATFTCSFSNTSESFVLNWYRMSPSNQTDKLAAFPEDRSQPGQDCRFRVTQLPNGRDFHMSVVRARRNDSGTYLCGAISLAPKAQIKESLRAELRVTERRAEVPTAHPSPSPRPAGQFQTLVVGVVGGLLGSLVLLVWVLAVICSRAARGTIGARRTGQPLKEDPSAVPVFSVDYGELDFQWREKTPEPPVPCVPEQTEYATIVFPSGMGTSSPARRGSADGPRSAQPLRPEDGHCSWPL
T1 sequence (Q06124 whole entry): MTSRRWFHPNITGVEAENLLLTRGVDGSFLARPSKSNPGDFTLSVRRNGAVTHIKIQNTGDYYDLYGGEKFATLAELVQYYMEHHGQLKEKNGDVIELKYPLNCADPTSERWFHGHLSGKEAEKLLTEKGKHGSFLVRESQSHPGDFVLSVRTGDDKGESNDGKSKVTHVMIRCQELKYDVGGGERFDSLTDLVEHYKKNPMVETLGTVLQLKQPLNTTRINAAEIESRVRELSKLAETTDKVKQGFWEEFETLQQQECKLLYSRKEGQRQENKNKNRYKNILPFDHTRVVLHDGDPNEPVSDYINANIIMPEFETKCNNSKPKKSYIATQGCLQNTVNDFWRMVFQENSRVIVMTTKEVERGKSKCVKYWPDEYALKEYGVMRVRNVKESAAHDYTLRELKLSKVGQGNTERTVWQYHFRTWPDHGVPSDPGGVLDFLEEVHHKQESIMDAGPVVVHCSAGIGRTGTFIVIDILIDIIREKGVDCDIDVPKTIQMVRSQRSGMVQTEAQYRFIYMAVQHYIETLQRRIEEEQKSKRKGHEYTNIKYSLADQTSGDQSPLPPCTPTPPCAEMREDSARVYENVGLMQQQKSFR

CN(C)c1ccc2nc3ccc(N(C)C)cc3[s+]c2c1 [MTC, 3,7-bis(dimethylamino)-phenothiazine-5-ium chloride]
tumor growth in the case of CD8+ T cell depletion ([1]; CD8 antibody one week in advance, then MTC and CD8 antibody for 2 weeks): not inhibited | tumors by CT imaging ([1]; MTC 40 mg/kg/day in HKI solution, 14 days): basically cleared | secretion of Granzyme B in CTL cells (OT-1 CTL cells): increased sharply | secretion of IFNγ in CTL cells (OT-1 CTL cells): increased sharply | secretion of IL-2 in CTL cells (OT-1 CTL cells): increased sharply | secretion of perforin in CTL cells (OT-1 CTL cells): increased sharply | localization of SHP2-mCherry relative to PD-1-GFP (PD-1 recruitment of SHP2): dissociation of mCherry from the membrane | killing effects of CTL cells to B16-OVA cells (B16-OVA cells; B16-OVA treated with 10 μg/mL IFNγ 24 hours, B16-OVA : CTL 1:5, 4 hours, MTC (1 µM), LMT (1 μM), FIGS. 4C and 4D): significantly enhanced | combined killing effect with CTL cells on B16-OVA compared with the anti-PD-1 group (B16-OVA cells; MTC (1 µM) or LMT (1 μM) vs anti-PD1 10 μg/mL, FIG. 4D): significantly stronger than that of the anti-PD-1 group | function of Jurkat cells inhibited by PD-1, compared with the PD-1 antibody group ([2]; 1 μM MTC vs 10 μg/mL PD1 antibody): significantly improved | secretion of IL-2 in the supernatant ([2]; Raji-PD-L1 : Jurkat-PD-1-NFAT-LUC 1:1, CD3/CD28 antibody coated plate, 1 μM MTC or 10 μg/mL PD1 antibody): sharply enhanced | killing effect on B16-WT cells, combination with CTL cells (B16-WT cells; IFN-γ 10 μg/mL 24 hours, B16-WT : CTL 1:5, 4 hours, MTC (1 μM) or LMT (1 μM)): no killing effect | killing effect on B16-WT cells, compound only (B16-WT cells; MTC (10 μM) or LMT (10 μM) only): no killing effect
